Measured values from patent US20060008800A1, “Unc-13 in the modulation of neurotransmission and secretion events” (priority 2002, published 2006).

Assays:
[1] = tested on: Munc13-1 deficient hippocampal neurons; assay: EPSC augmentation following high frequency action potential trains in Munc13-1 deficient, Munc13-2 dependent neurons; assay type: cell-based, mouse; conditions: 1 μM PDBU; Munc13-2 dependent cells
PKCs = assay type: cell-based, mouse
hippocampal neurons [2] = assay: Readily releasable vesicle pool size by hypertonic sucrose application; assay type: cell-based, mouse; conditions: in response to PDBU
Description: Microisland culture preparation was performed according to Bekkers and Stevens (1991). The extracellular medium contained (mM): NaCl, 167; KCl, 2.4; HEPES, 10; glucose, 10; CaCl2, 4; MgCl2, 4 (340 mOsm, pH 7.3). Solutions were applied and recordings were performed as described in Rosenmund (1995). To examine synaptically activated currents, experiments were performed using recurrent synapses (autapses) or only single autaptic neuroeses on microisland cultures at room temperature (=24° C.). Pipette solutions included (mM): KCl, 120, or K-Gluconate, 125; HEPES, 10; EGTA, 1; MgCl2, 4.6; Na4ATP, 4; Creatinephosphate, 15; creatinephosphokinase 50 U/ml (320 mOsm, pH 7.3). […] In this autaptic culture system, where isolated nerve cells make multiple synaptic contacts, so called autapses, with their own dendritic trees, spontaneous transmitter release, release of the readily releasable vesicle pool induced by hypertonic solutions, and action potential evoked release arise from the same synapse population and can be measured readily with patch clamp techniques. […]
Synaptic depression in wild type neurons has been interpreted as depletion of the readily releasable pool of vesicles because pool sizes and synaptic responses are reduced in parallel during high frequency stimulation. […]

hippocampal neurons [3] = assay: Effect of PDBU on mEPSC frequency in autaptic neurons; assay type: cell-based, mouse; conditions: 1 μM PDBU
Description: Microisland culture preparation was performed according to Bekkers and Stevens (1991). The extracellular medium contained (mM): NaCl, 167; KCl, 2.4; HEPES, 10; glucose, 10; CaCl2, 4; MgCl2, 4 (340 mOsm, pH 7.3). Solutions were applied and recordings were performed as described in Rosenmund (1995). To examine synaptically activated currents, experiments were performed using recurrent synapses (autapses) or only single autaptic neuroeses on microisland cultures at room temperature (=24° C.). Pipette solutions included (mM): KCl, 120, or K-Gluconate, 125; HEPES, 10; EGTA, 1; MgCl2, 4.6; Na4ATP, 4; Creatinephosphate, 15; creatinephosphokinase 50 U/ml (320 mOsm, pH 7.3). Wild type and Munc13-1 deficient glutamatergic hippocampal neurons were used to study the characteristics of Munc13-1 and Munc13-1 independent synapses. […] In this autaptic culture system, where isolated nerve cells make multiple synaptic contacts, so called autapses, with their own dendritic trees, spontaneous transmitter release, release of the readily releasable vesicle pool induced by hypertonic solutions, and action potential evoked release arise from the same synapse population and can be measured readily with patch clamp techniques. […]
Routinely, cells from Munc13-1^H567K/Munc13-1^H567K mutants were analyzed 12-20 day after plating and compared to wild type control cells obtained from littermates. […]

hippocampal neurons [4] = assay: β-phorbol ester induced potentiation of evoked synaptic currents in autaptic neuron cultures (patch clamp); assay type: cell-based, mouse; conditions: for β-phorbol ester induced EPSC potentiation (synaptic potentiation): PDBU 100-1000 nM; for EPSC potentiation: PDBU
Description: Microisland culture preparation was performed according to Bekkers and Stevens (1991). The extracellular medium contained (mM): NaCl, 167; KCl, 2.4; HEPES, 10; glucose, 10; CaCl2, 4; MgCl2, 4 (340 mOsm, pH 7.3). Solutions were applied and recordings were performed as described in Rosenmund (1995). To examine synaptically activated currents, experiments were performed using recurrent synapses (autapses) or only single autaptic neuroeses on microisland cultures at room temperature (=24° C.). Pipette solutions included (mM): KCl, 120, or K-Gluconate, 125; HEPES, 10; EGTA, 1; MgCl2, 4.6; Na4ATP, 4; Creatinephosphate, 15; creatinephosphokinase 50 U/ml (320 mOsm, pH 7.3). Wild type and Munc13-1 deficient glutamatergic hippocampal neurons were used to study the characteristics of Munc13-1 and Munc13-1 independent synapses. For these purposes, individual neurons grown on microisland beds of glial cells (Bekkers, 1991) were employed. In this autaptic culture system, where isolated nerve cells make multiple synaptic contacts, so called autapses, with their own dendritic trees, spontaneous transmitter release, release of the readily releasable vesicle pool induced by hypertonic solutions, and action potential evoked release arise from the same synapse population and can be measured readily with patch clamp techniques. Autaptic responses were obtained after brief (1-2 ms) somatic depolarization. This induces an unclamped action potential that is followed by a postsynaptic response with a delay of 2-4 ms. Excitatory, glutamatergic and inhibitory, GABAergic synaptic currents were distinguished by their characteristic pharmacological and kinetic properties. Excitatory glutamatergic cells were mainly characterized because the differential equipment of presynaptic terminals formed by the same axon with Munc13 priming factors is not apparent in GABAergic neurons.
Design of and infection with Semliki Forest Virus was done according to published procedures (Betz, 2001; Ashery, 2000). Cells were measured 22-26 h after infection.
Routinely, cells from Munc13-1^H567K/Munc13-1^H567K mutants were analyzed 12-20 day after plating and compared to wild type control cells obtained from littermates. In some experiments we employed Munc13-1/Munc13-2 double deficient neurons as model cells to study the characteristics of the Munc13-1^H567K variant in comparison to wild type Munc13-1 following overexpression using the Semliki-Forest-Virus system. In contrast to Munc13-1 deficient glutamatergic hippocampal neurons, which still show measurable glutamate release (10% of wild type levels; Augustin, 1999b), double homozygous Munc13-1/Munc13-2 deletion mutant neurons are characterized by a complete lack of spontaneous and evoked transmitter release but can be rescued by reintroduction of Munc13 proteins. This rescue approach was persued in Munc13-1/Munc13-2 double mutant neurons instead of breeding the Munc13-1^H567K/Munc 3-1^H567K mutation into the Munc13-2 deletion mutant background because it was much faster and allowed the direct comparison of additional mutant (Betz, 2001) and wild type Munc13-1 variants in the same cultures. Autaptic responses were obtained after brief (1-2 ms) somatic depolarization. This induces an unclamped action potential that is followed by a postsynaptic response with a delay of 2-4 ms. Excitatory, glutamatergic synaptic currents were identified by their characteristic pharmacological and kinetic properties.

NMDA receptors [5] = assay: Use dependent block of synaptic NMDA EPSCs by MK-801; assay type: cell-based, mouse; conditions: 5 μM; 120 evoked NMDA EPSCs; Munc13-1 deficient neurons
NMDA receptors [6] = conditions: cited from earlier work
[7] = Munc13-1 dominated wild type synapses
[8] = 1 μM PDBU, Munc13-1^H567K/Munc13-1^H567K neurons
[9] = after 1 μM PDBU, wildtype neurons

## CCCC(=O)O[C@@H]1[C@@H](C)[C@@]2(O)[C@@H](C=C(CO)C[C@]3(O)C(=O)C(C)=C[C@@H]23)[C@@H]2C(C)(C)[C@]12OC(=O)CCC [PDBU]
[1]
  additivity of β-phorbol ester induced potentiation and train induced augmentation: not additive
PKCs
  phosphorylation of Munc13-1: weakly phosphorylated in a constitutive, β-PE independent manner
  phosphorylation of SNAP-25 and GAP-43: strongly phosphorylated
Hippocampal neurons [2]; [7]
  increase of readily releasable vesicle pool: 11±5%
Hippocampal neurons [2]; Munc13-2 dependent synapses
  increase of readily releasable vesicle pool: 30±15%
Hippocampal neurons [3]; Munc13-1^H567K/Munc13-1^H567K cells
  mEPSC frequency: 127±16 % of control levels
Hippocampal neurons [3]; wildtype neurons
  mEPSC frequency: 239±34 % of control levels
Hippocampal neurons [4]; 1 μM PDBU alone, wild type neurons (GÖ 6983 experiment)
  β-PE induced increase in evoked EPSCs: 160±9 % of baseline values
Hippocampal neurons [4]; 1 μM PDBU for 1 min, wild type neurons, before bisindolylmaleimide I
  increase of evoked EPSC amplitudes over baseline value: 90±19%
Hippocampal neurons [4]; 1 μM PDBU for one minute, wildtype neurons
  evoked EPSC amplitudes: 191±17 % of baseline values
Hippocampal neurons [4]; 1 μM PDBU, Munc13-1/Munc13-2 double deficient cells overexpressing Munc13-1^H567K
  evoked EPSCs: 108±5 % of control levels
Hippocampal neurons [4]; 1 μM PDBU, Munc13-1/Munc13-2 double deficient neurons overexpressing wild type Munc13-1
  evoked EPSCs: 246±22 % of control levels
Hippocampal neurons [4]; [8]
  evoked EPSC amplitudes: 131±7 % of baseline values
  time constant of increase in evoked EPSC amplitudes: 16 s
Hippocampal neurons [4]; 1 μM PDBU, wildtype neurons
  time constant of enhancement of evoked EPSC amplitudes: 8 s
Hippocampal neurons [4]; PDBU 1 μM, rescue with C1-DAG binding mutant ubMunc13-2(H491K)
  phorbol ester induced potentiation of evoked responses: 1.04±0.03
Hippocampal neurons [4]; PDBU 1 μM, rescue with Calmodulin binding deficient mutant ubMunc13-2(W387R)
  phorbol ester induced potentiation of evoked responses: 2.9±0.4 fold
Hippocampal neurons [4]; Munc13-1 deficient, Munc13-2 dependent synapses
  β-phorbol ester induced EPSC potentiation (synaptic potentiation): 570±118%
Hippocampal neurons [4]; [7]
  β-phorbol ester induced EPSC potentiation (synaptic potentiation): 199±25%
Hippocampal neurons [4]; PDBU at 1 μM for 1 minute, double deficient neurons rescued with wildtype ubMunc13-2
  phorbol ester induced potentiation of evoked responses: 3.9±1.1 fold
Hippocampal neurons [4]; Munc13-1/Munc13-2 double deficient neurons rescued with Munc13-1
  EPSC potentiation: 247±22%
Hippocampal neurons [4]; Munc13-1/Munc13-2 double deficient neurons rescued with ubMunc13-2
  EPSC potentiation: 510±83%
Hippocampal neurons [4]; [9]
  time constant of return to baseline after removal: 27 s
  time for synaptic amplitude to return to baseline after removal: 3 to 4 min
Hippocampal neurons [4]; compared with EPSCs, wild type and Munc13-1 deficient neurons
  β-Phorbol ester induced potentiation of IPSCs: much less pronounced
Hippocampal neurons [4]; rescue with ubMunc13-2 deletion construct lacking the first 400 amino acids
  phorbol ester response: 4.5±1.3 fold increase

## C[C@]12N[C@H](Cc3ccccc31)c1ccccc12 [MK-801]
NMDA receptors [5]
  reduction of the NMDA EPSC component: more than 90%
NMDA receptors [6]; Munc13-1 deficient cells
  synaptic NMDA receptors activated and blocked during synaptic activity: 20%
NMDA receptors [6]; wild type cells
  cellular NMDA receptors activated and blocked during synaptic activity: 75%
